Experimental data: ChEMBL document CHEMBL5260849, “Current advances in Vibrio harveyi quorum sensing as drug discovery targets” (Eur J Med Chem, 2020)

target: Autoinducer 2-binding periplasmic protein LuxP (Vibrio harveyi) (UniProt P54300); assay: Antagonist activity against LuxP signalling in Vibrio harveyi BB170 assessed as inhibition of AI-2 regulated bioluminescence at 20 to 40 uM and measured after 2.5 hrs by bioluminescence assay; details: filed as antagonist, dose 20-40 µM
Sequence (P54300 whole entry): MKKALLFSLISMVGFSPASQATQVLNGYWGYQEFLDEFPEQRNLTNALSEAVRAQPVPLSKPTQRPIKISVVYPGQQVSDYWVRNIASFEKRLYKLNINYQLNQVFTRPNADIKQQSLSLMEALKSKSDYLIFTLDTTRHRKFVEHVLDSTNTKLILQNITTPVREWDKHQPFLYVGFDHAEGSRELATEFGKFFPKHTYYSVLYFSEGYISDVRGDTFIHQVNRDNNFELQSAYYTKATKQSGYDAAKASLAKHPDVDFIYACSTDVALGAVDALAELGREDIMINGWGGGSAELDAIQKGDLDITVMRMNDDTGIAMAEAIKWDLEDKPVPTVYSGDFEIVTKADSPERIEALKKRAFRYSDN

Compound | inhibition [%]
CC(C)C(=O)C(=O)C(O)CO (configuration not stated) | 50
CC(C)CC(=O)C(=O)C(O)CO (configuration not stated) | 50

target: T1, Autoinducer 1 sensor kinase/phosphatase LuxN (Vibrio harveyi, UniProt P0C5S6); assay: Antagonist activity at LuxN signaling in Vibrio harveyi HLS253 assessed as inhibition of 3-hydroxybutanoyl homoserine lactone induced bioluminescence by autoinducer based bioluminescence assay; details: not given
T1 sequence (P0C5S6 whole entry): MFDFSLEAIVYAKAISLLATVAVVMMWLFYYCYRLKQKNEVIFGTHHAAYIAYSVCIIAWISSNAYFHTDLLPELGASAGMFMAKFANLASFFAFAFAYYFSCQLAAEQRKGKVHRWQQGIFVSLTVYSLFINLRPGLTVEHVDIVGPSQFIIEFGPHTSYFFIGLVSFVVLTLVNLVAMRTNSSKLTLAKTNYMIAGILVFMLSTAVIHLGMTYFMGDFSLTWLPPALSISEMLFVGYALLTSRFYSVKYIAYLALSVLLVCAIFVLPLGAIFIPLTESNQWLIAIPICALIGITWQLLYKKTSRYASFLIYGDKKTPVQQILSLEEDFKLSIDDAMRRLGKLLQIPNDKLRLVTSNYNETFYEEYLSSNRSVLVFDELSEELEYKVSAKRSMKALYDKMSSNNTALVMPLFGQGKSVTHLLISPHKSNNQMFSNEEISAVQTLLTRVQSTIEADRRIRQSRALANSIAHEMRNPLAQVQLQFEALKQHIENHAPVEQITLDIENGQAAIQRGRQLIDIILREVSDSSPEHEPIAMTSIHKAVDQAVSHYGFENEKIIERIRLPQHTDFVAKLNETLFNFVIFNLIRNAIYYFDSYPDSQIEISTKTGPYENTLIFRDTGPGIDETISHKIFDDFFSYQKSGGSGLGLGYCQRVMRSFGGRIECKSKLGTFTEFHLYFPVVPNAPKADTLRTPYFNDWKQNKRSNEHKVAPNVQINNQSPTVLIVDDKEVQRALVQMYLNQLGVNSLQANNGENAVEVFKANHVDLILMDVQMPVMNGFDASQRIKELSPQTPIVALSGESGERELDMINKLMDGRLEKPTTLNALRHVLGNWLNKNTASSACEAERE

Compound | IC50 [µM]
O=C(c1ccc(O)cc1)c1ccc(S(=O)(=O)c2ccc(O)cc2)cc1 | 2.6
CC(=O)N1CCc2cc(S(=O)(=O)NC(CC(C)C)C(=O)CCc3ccc(O)cc3)ccc21 (configuration not stated) | 2.7

target: T2, Autoinducer 1 sensor kinase/phosphatase LuxN (Vibrio harveyi) (UniProt P0C5S6); assay: Inhibition of LuxN quorum sensing signaling in Vibrio harveyi BB886 assessed as inhibition of N-acylhomoserine lactone (HAI-1) activity by measuring bioluminescence for every 20 mins by autoinducer bioassay; details: not given
T2 sequence (whole entry): T1 sequence (P0C5S6 whole entry)

Compound | inhibition [%]
CC(C)=CCC/C(C)=C/COc1c2ccoc2cc2oc(=O)ccc12 | 96.7
C/C(=C\COc1c2ccoc2cc2oc(=O)ccc12)CCC(O)C(C)(C)O (configuration not stated) | 96.7

tested on: not listed separately; assay: Toxicity in […] mouse with abdominal infection assessed survival rate at 4.5 microg/g,ip and measured after 4 days; details: in vivo, dose 4.5 µg/g, time 4 day

Compound | survival at 96 h [%]
CCCCC1=C(Br)/C(=C/Br)OC1=O | 90

target: T3, HTH-type transcriptional regulator LuxR (Vibrio harveyi) (UniProt P21308); assay: Inhibition of LuxR quorum sensing system in Vibrio harveyi BB120 assessed as inhibition of autoinducer-2 induced luxR activity at 100 uM for 16 hrs by bioluminescence assay; details: not given
T3 sequence (whole entry): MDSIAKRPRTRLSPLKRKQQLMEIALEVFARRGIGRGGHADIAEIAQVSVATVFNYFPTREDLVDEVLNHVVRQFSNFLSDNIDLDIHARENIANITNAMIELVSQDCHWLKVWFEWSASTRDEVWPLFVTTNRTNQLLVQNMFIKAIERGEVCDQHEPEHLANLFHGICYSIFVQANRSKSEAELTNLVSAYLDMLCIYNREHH

Compound | inhibition [%]
CCCCCC/C=C/C(C)=O | 100
O=C/C=C/c1ccc(Cl)c(C(F)(F)F)c1 | 97
CCCCCC/C=C/C(=O)OC | 59
CCCCCC/C=C/C=O | 100
CC(=O)C1=CCCCC1 | 16
CCCCCC/C=C/C(=O)CO | 17
O=C/C=C/c1c(F)c(F)c(F)c(F)c1F | 95
CCC/C=C/C=O | 35
CCCC/C=C/C(C)=O | 80
CCCCCCC/C=C/C=O | 90
COc1ccc(/C=C/C=O)cc1 | 34
O=C/C=C/c1ccc([N+](=O)[O-])cc1 | 33
CCCCC/C=C/C=O | 71
CC/C=C/C=O | 58
O=C/C=C/c1ccccc1[N+](=O)[O-] | 62
CCCCCCCC/C=C/C=O | 94
O=C/C=C/c1ccccc1 | 65
CS(=O)(=O)/C=C/c1ccccc1 | 73
CCCCCCCCC/C=C/C=O | 87
CC(=O)/C=C/c1ccccc1 | 78
NC(=O)/C=C/c1ccccc1 | 61
COc1ccccc1/C=C/C=O | 14
CN(C)c1ccc(/C=C/C=O)cc1 | 17
CCCC/C=C/C(=O)O | 36
CCCCC/C=C/C(C)=O | 100
CCCC/C=C/C=O | 55
O=C/C=C/c1ccc(Cl)c(Cl)c1 | 99
CC(=O)CCc1ccccc1 | 13
CCCCCCCCCC/C=C/C=O | 56

tested on: Vibrio harveyi; assay: Inhibition of Vibrio harveyi BB886 LuxS assessed as inhibition of autoinducer-2 induced QS activity at 100 uM for 16 hrs by bioluminescence assay; details: not given

Compound | inhibition [%]
O=C1C=C/C(=C/Br)O1 | 96

target: LuxP/Q (Vibrio harveyi, UniProt P54300+P54302); assay: Antagonist activity against LuxPQ quorum sensing system in Vibrio harveyi MM32 assessed as inhibition of luminescence intensity incubated for 3 to 4 hrs by luminescence microplate reader analysis; format: protein-complex assay; details: not given
Sequence (P54300 whole entry): as the sequence (P54300 whole entry) above
Sequence (P54302 whole entry): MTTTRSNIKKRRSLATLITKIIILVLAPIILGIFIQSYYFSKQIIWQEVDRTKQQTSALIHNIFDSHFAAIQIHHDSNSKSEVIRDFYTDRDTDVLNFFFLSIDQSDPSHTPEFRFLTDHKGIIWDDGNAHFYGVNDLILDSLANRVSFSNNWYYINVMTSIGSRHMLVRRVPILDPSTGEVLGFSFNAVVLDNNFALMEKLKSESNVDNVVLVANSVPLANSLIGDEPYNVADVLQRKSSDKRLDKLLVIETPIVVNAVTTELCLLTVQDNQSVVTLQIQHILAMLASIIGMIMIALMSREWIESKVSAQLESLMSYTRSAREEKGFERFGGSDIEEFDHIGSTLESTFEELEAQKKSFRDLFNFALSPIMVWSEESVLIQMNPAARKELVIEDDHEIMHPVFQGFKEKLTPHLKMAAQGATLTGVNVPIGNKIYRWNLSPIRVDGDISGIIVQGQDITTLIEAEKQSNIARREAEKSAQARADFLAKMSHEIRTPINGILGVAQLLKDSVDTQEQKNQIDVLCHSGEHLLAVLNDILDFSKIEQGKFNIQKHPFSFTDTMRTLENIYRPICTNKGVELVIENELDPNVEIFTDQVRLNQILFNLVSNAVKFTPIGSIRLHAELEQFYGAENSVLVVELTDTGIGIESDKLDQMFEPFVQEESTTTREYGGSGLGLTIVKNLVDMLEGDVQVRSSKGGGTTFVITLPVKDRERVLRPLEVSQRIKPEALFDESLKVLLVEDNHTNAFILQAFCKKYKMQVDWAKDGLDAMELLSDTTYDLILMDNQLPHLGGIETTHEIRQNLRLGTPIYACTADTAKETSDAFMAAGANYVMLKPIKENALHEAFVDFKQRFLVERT

Compound | IC50 [µM]
Cc1ccc(B(O)O)cc1F | 9
Cc1ccc(B(O)O)c(F)c1 | 4
OB(O)c1ccc(OCc2ccccc2)cc1 | 4
COC(=O)c1ccc(B(O)O)cc1 | 5
N#Cc1ccc(B(O)O)cc1 | 6

target: T1, Autoinducer 1 sensor kinase/phosphatase LuxN; assay: Antagonist activity against Vibrio harveyi BB120 LuxN assessed as inhibition of AI-2 regulated bioluminescence and measured after 6 hrs by bioluminescence assay; details: not given

Compound | IC50 [µM]
Nc1ncnc2c1ncn2[C@@H]1O[C@H](CO)[C@@H](N)[C@H]1O | 2.9
[N-]=[N+]=N[C@H]1[C@@H](O)[C@H](n2cnc3c(N)ncnc32)O[C@@H]1CO | 2.7

target: LuxP/Q (Vibrio harveyi) (UniProt P54300+P54302); assay: Antagonist activity against Vibrio harveyi BB886 LuxPQ assessed as inhibition of AI-2 induced bioluminescence at 40 uM and measured after 6 hrs by bioluminescence assay; format: protein-complex assay; details: not given

Compound | inhibition [%]
COc1ccc(CCC(=O)NC[C@H]2[C@@H](O)[C@H](n3cnc4c(N)ncnc43)O[C@@H]2CO)cc1 | 20
COc1cccc(/C=C/C(=O)N[C@H]2[C@@H](O)[C@H](n3cnc4c(N)ncnc43)O[C@@H]2CO)c1 | 20

same assay, conditions: filed as antagonist

Compound | inhibition [%]
COc1ccc(CCC(=O)N[C@@H]2[C@@H](CO)OC(OC)[C@@H]2O)cc1 (some centres not stated) | 40
COc1ccc(CCC(=O)N[C@H]2[C@@H](O)[C@H](n3cnc4c(N)ncnc43)O[C@@H]2CO)cc1 | 80
NC(=S)CS(=O)(=O)c1cccs1 | 60
COC(=O)c1ccc(B(O)O)cc1 | > 80

tested on: not listed separately; assay: Inhibition of quorum-sensing system in Vibrio harveyi BB170 assessed as inhibition of AI-2 at 0.1 to 10 uM and measured after 24 hrs by bioluminescence assay; details: dose 0.1-10 µM

Compound | inhibition [%]
CCCCCCCC/C=C\CCCCCCCC(=O)O | > 75
CCCCCCCCCCCCCCCCCC(=O)O | > 25
CCCCC/C=C\C/C=C\CCCCCCCC(=O)O | > 99
CCCCCCCCCCCCCCCC(=O)O | 25

tested on: not listed separately; assay: Inhibition of quorum-sensing system in Vibrio harveyi BB170 assessed as inhibition of LuxU induced bioluminescence by bioluminescence assay; set-up: concentration or dose not given beside the values; details: concentration not given here

Compound | inhibition [%]
COc1ccc(-c2cc(=O)c3c(OC)c(OC)c(OC)cc3o2)cc1OC | 60
O=c1cc(-c2ccc(O)cc2)oc2cc(O)cc(O)c12 | 60
O=C1CC(c2ccc(O)cc2)Oc2cc(O)cc(O)c21 (configuration not stated) | 80
COc1ccc(C2CC(=O)c3c(O)cc(O[C@@H]4O[C@H](CO[C@@H]5O[C@@H](C)[C@H](O)[C@@H](O)[C@H]5O)[C@@H](O)[C@H](O)[C@H]4O)cc3O2)cc1O (some centres not stated) | 10
C[C@@H]1O[C@@H](O[C@H]2[C@H](Oc3cc(O)c4c(c3)OC(c3ccc(O)cc3)CC4=O)O[C@H](CO)[C@@H](O)[C@@H]2O)[C@H](O)[C@H](O)[C@H]1O (some centres not stated) | 40
C[C@@H]1O[C@@H](O[C@H]2[C@H](Oc3cc(O)c4c(c3)OC(c3ccc(O)c(O)c3)CC4=O)O[C@H](CO)[C@@H](O)[C@@H]2O)[C@H](O)[C@H](O)[C@H]1O (some centres not stated) | > 20
COc1ccc(C2CC(=O)c3c(O)cc(O[C@@H]4O[C@H](CO)[C@@H](O)[C@H](O)[C@H]4O[C@@H]4O[C@@H](C)[C@H](O)[C@@H](O)[C@H]4O)cc3O2)cc1O (some centres not stated) | > 20
O=c1c(O)c(-c2ccc(O)cc2)oc2cc(O)cc(O)c12 | > 99
O=c1c(O)c(-c2ccc(O)c(O)c2)oc2cc(O)cc(O)c12 | > 99

tested on: Vibrio harveyi; assay: Inhibition of biofilm formation in Vibrio harveyi BB120 at 500 uM for 24 hrs by crystal violet assay; format: functional; details: not given

Compound | inhibition at 500 µM [%]
COc1cc(/C=C/C(=O)c2c(O)cc(O)cc2OC)ccc1O | 60
COc1cc(O)cc([C@@H]2CC(=O)c3c(OC)cc(O)cc3O2)c1 | 68

tested on: not listed separately; assay: Inhibition of quorum-sensing system in Vibrio harveyi MM32 assessed as inhibition of AI-2 mediated bioluminescence incubated for 4 to 6 hrs by bioluminescence assay; details: not given

Compound | IC50 [µM]
Brc1ccc2ncsc2c1 | 88
CSc1nccc(Oc2ccccc2Cl)n1 | 3.42
CC(C)(C)S(=O)(=O)CC#N | 110
Fc1ccccc1-c1ccc(CNCc2ccco2)o1 | 14.8
C=CCOC(=O)C1=CS(=O)(=O)c2ccccc21 | 3.06
O=C(O)c1ccc(-c2c(Cl)cc([N+](=O)[O-])cc2Cl)o1 | 40.1
NC(=S)CS(=O)(=O)c1ccccn1 | 55
Brc1ccc(-c2cnco2)cc1 | 60
CSC1=CS(=O)(=O)c2ccccc21 | 41
CC1=CCn2nc(N)c(/N=N/c3ccccc3)c2N1 | 19.8
Cn1cnnc1SCC(=O)Nc1nc2ccccc2s1 | 5.51

tested on: Vibrio harveyi; assay: Inhibition of CAI-1 mediated quorum-sensing in Vibrio harveyi JMH626 assessed as inhibition of CAI-1 mediated luminescence at 2 uM by bioluminescence assay; details: not given

Compound | inhibition [%]
CCCCCCC[C@@H](C/C=C/CCC(=O)O)OC | 100
